Laboratory results taken from patent publication US9278958B2, “Anti-cancer compounds” (KATHOLIEKE UNIVERSITEIT LEUVEN, priority 2012, dated 2016).
Where two headings read alike, the source gives them in different places. Values belong to the molecule of their own block, whether it stands above or below them.

How the values were obtained:
[1] = tested on: broad variety of tumor cell lines; assay: Cytostatic assays, summary over the panel of cell lines (Tables 2-4); type: cell-based
Procedure: (§1) To each well of a 96-well microtiter plate were added 5-7.5×10^4 cells and a given amount of the test compound. The cells were allowed to proliferate for 48 h to 96 h (depending on the nature of the cell line) at 37° C. in a humidified CO2-controlled atmosphere. At the end of the incubation period, the cells were counted in a Coulter Counter (Coulter Electronics Ltd, Harpenden Herts, United Kingdom).

[2] = tested on: OST TK- osteosarcoma cells; assay: Cytostatic assay, OST TK-; type: cell-based; details: Homo sapiens; Table 3
Procedure, shortened: (§2)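 Test compound was added to wells holding 5-7.5×10^4 cells. After line-specific growth periods of 48 h to 96 h at 37° C in a moist atmosphere with regulated CO2, the number of cells was recorded by Coulter counting.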

[3] = tested on: Caki-2 kidney carcinoma cells; assay: Cytostatic assay, Caki-2; type: cell-based; details: Homo sapiens, Table 3
Procedure, shortened: as §2

[4] = tested on: U937, human monocytic cells; assay: Cytostatic assay, U937; type: cell-based; details: U-937, Table 2
Procedure, shortened: as §2

HepG2C3A hepatoma cells = assay: Cytostatic assay, HepG2C3A; type: cell-based; details: Homo sapiens, HepG2/C3A; Table 4
Procedure, shortened: as §2

MT-2 cells = assay: Cytostatic assay, MT-2; type: cell-based; details: Homo sapiens, MT2; Table 2
Procedure, shortened: as §2

[5] = tested on: HT29 colorectal carcinoma cells; assay: Cytostatic assay, HT29; type: cell-based; details: Homo sapiens, HT-29; Table 3
Procedure, shortened: as §2

[6] = tested on: 293T embryonic kidney cells; assay: Cytostatic assay, 293T; type: cell-based; details: Homo sapiens, HEK-293T; Table 3
Procedure, shortened: as §2

HUT-78 cells = assay: Cytostatic assay, HUT-78; type: cell-based; details: Homo sapiens, HuT78; Table 2
Procedure, shortened: as §2

L1210 cells = assay: Cytostatic assay, L1210; type: cell-based; details: Mus musculus, Table 2
Procedure, shortened: as §2

PLC/PRF/5 hepatoma cells = assay: Cytostatic assay, PLC/PRF/5; type: cell-based; details: Homo sapiens, Table 4
Procedure, shortened: as §2

Molt4/C8 cells = assay: Cytostatic assay, Molt4/C8; type: cell-based; details: Table 2
Procedure, shortened: as §2

[7] = tested on: DNA synthesis in CEM cells; assay: Antimetabolic activity assay, [CH3-3H]dThd incorporation (DNA synthesis), CEM; type: cell-based; details: Homo sapiens, CCRF-CEM, incorporation into TCA-insoluble material
Procedure: (§3) Radiolabeled precursors of DNA synthesis ([^3H-methyl]dThd), RNA synthesis ([5-^3H]Urd), and protein synthesis ([4,5-^3H]leu) were added to 10^5 CEM cell cultures in the 200 μl-wells of a microtiter plate at 1 μCi for each precursor in the presence of varying concentrations of the test compounds (5-fold dilution series). The cells were allowed to proliferate for 20 hrs at 37° C. in a humidified, CO2-controlled atmosphere. At the end of the incubation period, the contents of the wells were brought onto 25-mm glass fiber filters and further processed for measurement of acid-insoluble radioactivity.

[8] = tested on: 22Rv1 (UZ) prostate cancer cells; assay: Cytostatic assay, 22Rv1 (UZ); type: cell-based; details: Homo sapiens, Table 4
Procedure, shortened: as §2

[9] = tested on: HeLa cervix carcinoma cells; assay: Cytostatic assay, HeLa; type: cell-based, human; details: Homo sapiens; Table 3; read-out: Cytostatic activity (μM) Hela
Procedure, shortened: as §2

Sup T1 cells = assay: Cytostatic assay, Sup T1; type: cell-based; details: Homo sapiens, Table 2, read-out: Cytostatic activity (μM) Sup T 1
Procedure, shortened: as §2

[10] = tested on: RNA synthesis in Raji cells; assay: Antimetabolic activity assay, [5-3H]uridine incorporation (RNA synthesis), Raji; type: cell-based; details: Homo sapiens, incorporation into TCA-insoluble material
Procedure: [The procedure below names another cell line; the source lists this cell line under the same test.] as §3

[11] = tested on: BAEC aortic endothelial cells; assay: Cytostatic assay, BAEC; type: cell-based, bovine; details: Bos taurus, Table 3
Procedure, shortened: as §2

[12] = tested on: MCF-7 mammary carcinoma cells; assay: Cytostatic assay, MCF-7; type: cell-based; details: Homo sapiens, MCF7; Table 3
Procedure, shortened: as §2

[13] = tested on: THP-1, human monocytic cells; assay: Cytostatic assay, THP-1; type: cell-based; details: Table 2
Procedure, shortened: as §2

MT-4 cells = assay: Cytostatic assay, MT-4; type: cell-based; details: Homo sapiens, MT4; Table 2
Procedure, shortened: as §2

[14] = tested on: protein synthesis in Raji cells; assay: Antimetabolic activity assay, [4,5-3H]leucine incorporation (protein synthesis), Raji; type: cell-based; details: Homo sapiens, incorporation into TCA-insoluble material
Procedure: [The procedure below names another cell line; the source lists this cell line under the same test.] as §3

[15] = tested on: HEL embryonic lung fibroblast cells; assay: Cytostatic assay, HEL; type: cell-based; details: Homo sapiens, Table 3
Procedure, shortened: as §2

[16] = tested on: FM3A mammary carcinoma cells; assay: Cytostatic assay, FM3A; type: cell-based, murine; details: Mus musculus, Table 3
Procedure, shortened: as §2

[17] = tested on: DU145 (UZ) prostate cancer cells; assay: Cytostatic assay, DU145 (UZ); type: cell-based; details: Homo sapiens, DU-145; Table 4
Procedure, shortened: as §2

[18] = tested on: Daudi, human B-lymphoma cells; assay: Cytostatic assay, Daudi; type: cell-based; details: Table 2
Procedure: as §1

CEM cells = assay: Cytostatic assay, CEM; type: cell-based; details: Homo sapiens, CCRF-CEM
Procedure, shortened: as §2

C8166 cells = assay: Cytostatic assay, C8166; type: cell-based; details: Homo sapiens, Table 2
Procedure, shortened: as §2

Huh-7 hepatoma cells = assay: Cytostatic assay, Huh-7; type: cell-based; details: Homo sapiens, Table 4
Procedure, shortened: as §2

[19] = tested on: RNA synthesis in CEM cells; assay: Antimetabolic activity assay, [5-3H]uridine incorporation (RNA synthesis), CEM; type: cell-based; details: Homo sapiens, CCRF-CEM, incorporation into TCA-insoluble material
Procedure: as §3

[20] = tested on: Caki-1 kidney carcinoma cells; assay: Cytostatic assay, Caki-1; type: cell-based; details: Homo sapiens, Table 3
Procedure, shortened: as §2

[21] = tested on: DNA synthesis in Raji cells; assay: Antimetabolic activity assay, [CH3-3H]dThd incorporation (DNA synthesis), Raji; type: cell-based; details: Homo sapiens, incorporation into TCA-insoluble material
Procedure: [The procedure below names another cell line; the source lists this cell line under the same test.] as §3

[22] = tested on: HOS CD4+ osteosarcoma cells; assay: Cytostatic assay, HOS CD4+; type: cell-based; details: Homo sapiens; Table 3
Procedure: as §1

[23] = tested on: U87 CD4+/CXCR4+/CCR5+ glioma cells; assay: Cytostatic assay, U87 CD4+/CXCR4+/CCR5+; type: cell-based; details: Homo sapiens, Glioma cell; Table 3
Procedure: as §1

[24] = tested on: PNT1A (UZ) prostate cells; assay: Cytostatic assay, PNT1A (UZ); type: cell-based; details: Homo sapiens, Table 4
Procedure, shortened: as §2

[25] = tested on: LNCaP (UZ) prostate cancer cells; assay: Cytostatic assay, LNCaP (UZ); type: cell-based; details: Homo sapiens, Table 4
Procedure, shortened: as §2

[26] = tested on: PC-3 (UZ) prostate cancer cells; assay: Cytostatic assay, PC-3 (UZ); type: cell-based; details: Table 4
Procedure, shortened: as §2

[27] = tested on: Raji, human B-lymphoma cells; assay: Cytostatic assay, Raji; type: cell-based; details: Table 2
Procedure, shortened: as §2

U87 glioma cells = assay: Cytostatic assay, U87; type: cell-based; details: Homo sapiens, U-87 MG; Table 3
Procedure, shortened: as §2

[28] = tested on: HL60, human leukemia cells; assay: Cytostatic assay, HL-60; type: cell-based; details: Table 2
Procedure, shortened: as §2

[29] = tested on: PC3 (rega) prostate cancer cells; assay: Cytostatic assay, PC3 (rega); type: cell-based; details: Table 4
Procedure, shortened: as §2

[30] = tested on: protein synthesis in CEM cells; assay: Antimetabolic activity assay, [4,5-3H]leucine incorporation (protein synthesis), CEM; type: cell-based; details: Homo sapiens, CCRF-CEM, incorporation into TCA-insoluble material
Procedure: as §3

BPH-1 (UZ) = assay: Cytostatic assay, BPH-1 (UZ); type: cell-based; details: Homo sapiens, Table 4
Procedure, shortened: as §2

[31] = Homo sapiens, HuT78, range for the seven compounds, MT-4 and HUT-78 cells, read-out: IC50 range, cytostatic activity against MT-4 and HUT-78 cells
[32] = range for the seven compounds against the 5 tumor cell lines, read-out: IC50 range, cytostatic activity against CEM, Molt4/C8, Sup T1, MT-2 and C8166 cells
[33] = Table 2, read-out: Cytostatic activity (μM) CEM

- IC50 [1, 31]: 8.5 to 60 µM
- IC50 [1, 32]: 0.22 to 3.4 µM
- IC50 [2]: 10 ± 6.9 µM
- IC50 [3]: ≥ 200 µM
- IC50 [4]: 40 ± 2.8 µM
- IC50 (HepG2C3A hepatoma cells): 13 ± 0.71 µM
- IC50 (MT-2 cells): 1.8 ± 0.64 µM
- IC50 [5]: > 100 µM
- IC50 (HUT-78 cells): 39 ± 27 µM
- IC50 (L1210 cells): 248 ± 40 µM
- IC50 (PLC/PRF/5 hepatoma cells): 62 ± 21 µM
- IC50 (Molt4/C8 cells): 0.27 ± 0.27 µM
- IC50 [7]: 3.1 ± 0.3 µM
- IC50 [8]: 21 ± 17 µM
- IC50 [9]: 105 ± 68 µM
- IC50 (Sup T1 cells): 0.95 ± 0.64 µM
- IC50 [10]: > 100 µM
- IC50 [11]: 44 ± 22 µM
- IC50 [12]: 79 ± 30 µM
- IC50 [13]: 32 ± 4.9 µM
- IC50 [14]: > 100 µM
- IC50 [16]: 49 ± 9.9 µM
- IC50 [17]: 14 ± 1.2 µM
- IC50 [18]: 61 ± 1.4 µM
- IC50 (CEM cells; Table 1a, read-out: IC50 μM (CEM)): 1.5 µM
- IC50 (CEM cells; [33]): 1.5 ± 0.28 µM
- IC50 (C8166 cells): 1.6 ± 0.95 µM
- IC50 (Huh-7 hepatoma cells): 4.6 ± 0.28 µM
- IC50 [19]: 1 ± 0.5 µM
- IC50 [20]: 4.5 ± 3.8 µM
- IC50 [21]: > 100 µM
- IC50 [22]: 67 ± 6.4 µM
- IC50 [23]: 48 ± 6.4 µM
- IC50 [24]: > 100 µM
- IC50 [25]: 0.35 ± 0.067 µM
- IC50 [26]: 1.3 ± 0.071 µM
- IC50 [27]: 93 ± 11 µM
- IC50 (U87 glioma cells): > 100 µM
- IC50 [28]: 4.9 ± 5.4 µM
- IC50 [29]: 0.57 ± 0.3 µM
- IC50 [30]: 1.9 ± 1.6 µM
- IC50 (BPH-1 (UZ)): > 100 µM
SMILES: COC(=O)c1cc(CCc2ccc(OC)cc2C)sc1N [TR583, 2-Amino-5-[2-(4-methoxy-2-methyl-phenyl)-ethyl]-thiophene-3-carboxylic acid methyl ester]
- IC50 [6]: 84 ± 23 µM
- IC50 (MT-4 cells): 60 ± 0.71 µM
- IC50 [15]: 87 ± 19 µM

- IC50 [1, 31]: 8.5 to 60 µM
- IC50 [1, 32]: 0.22 to 3.4 µM
- IC50 [2]: 5.4 ± 3.3 µM
- IC50 [3]: 66 ± 37 µM
- IC50 [4]: 43 ± 1.4 µM
- IC50 (HepG2C3A hepatoma cells): 6.7 ± 0.35 µM
- IC50 (MT-2 cells): 1.7 ± 0.14 µM
- IC50 [5]: 27 ± 13 µM
- IC50 (HUT-78 cells): 22 ± 9.2 µM
- IC50 (PLC/PRF/5 hepatoma cells): 24 ± 2.1 µM
- IC50 (Molt4/C8 cells): 0.34 µM
- IC50 [7]: 11 ± 4 µM
- IC50 [8]: 15 ± 7.9 µM
- IC50 [9]: 39 µM
- IC50 (Sup T1 cells): 1.5 ± 0.071 µM
- IC50 [10]: > 100 µM
- IC50 [11]: 23 ± 0.71 µM
- IC50 [12]: 36 ± 5.7 µM
- IC50 [13]: 23 ± 3.5 µM
- IC50 [14]: ≥ 100 µM
- IC50 [16]: 46 ± 6 µM
- IC50 [17]: 8.4 ± 1.6 µM
- IC50 [18]: 43 ± 2.1 µM
- IC50 (CEM cells; [33]): 1.9 ± 0.99 µM
- IC50 (C8166 cells): 3.4 ± 0.071 µM
- IC50 (Huh-7 hepatoma cells): 1.6 ± 0.14 µM
- IC50 [19]: 3 ± 0.1 µM
- IC50 [20]: 4.6 ± 2.1 µM
- IC50 [21]: > 100 µM
- IC50 [22]: 25 ± 5.7 µM
- IC50 [23]: 37 ± 9.9 µM
- IC50 [24]: 37 ± 9.9 µM
- IC50 [25]: 0.34 ± 0.05 µM
- IC50 [26]: 1.1 ± 0.49 µM
- IC50 [27]: 39 ± 2.8 µM
- IC50 (U87 glioma cells): 38 ± 1.4 µM
- IC50 [28]: 7 ± 8.7 µM
- IC50 [29]: 0.67 ± 0.14 µM
- IC50 [30]: 1.6 ± 1.1 µM
- IC50 (BPH-1 (UZ)): 43 ± 2.8 µM
SMILES: CCOC(=O)c1cc(CCc2ccc(OC)cc2)sc1N [TR532, 2-Amino-5-[2-(4-methoxy-phenyl)-ethyl]-thiophene-3-carboxylic acid ethyl ester]
- IC50 [6]: 41 ± 0.71 µM
- IC50 (MT-4 cells): 8.5 ± 0.92 µM
- IC50 [15]: 20 ± 8.5 µM
